The supplement of paper PMC11451515

System: NOMO1
Assay: cell viability relative to DMSO control; higher = less cytotoxic
Settings: 48 h
Method in brief: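 Viability is a per-plate percentage relative to DMSO wells, with cell-free wells as background. CellTiter-Glo One luminescence was read after 48 h at 37°C on 1536-well plates (5 μl) of NOMO1 or SEM (500 cells/well) or P12-Ichikawa (1000 cells/well) leukemia cells. The cells had been adapted for at least four passages in each medium and pin-dosed with library compounds in DMSO from 47 μM to 0.79 nM in 11 threefold steps.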

[1] = HPLM + 10% dialyzed FBS, 0.000781 µM
[2] = HPLM + 10% dialyzed FBS, 0.00234 µM
[3] = HPLM + 10% dialyzed FBS, 0.00702 µM
[4] = HPLM + 10% dialyzed FBS, 0.0211 µM
[5] = HPLM + 10% dialyzed FBS, 0.0632 µM
[6] = HPLM + 10% dialyzed FBS, 0.19 µM
[7] = HPLM + 10% dialyzed FBS, 0.569 µM
[8] = HPLM + 10% dialyzed FBS, 1.71 µM
[9] = HPLM + 10% dialyzed FBS, 5.12 µM
[10] = HPLM + 10% dialyzed FBS, 15.4 µM
[11] = HPLM + 10% dialyzed FBS, 46.1 µM
[12] = RPMI 5 mM glucose + 10% FBS, 0.000781 µM
[13] = RPMI 5 mM glucose + 10% FBS, 0.00234 µM
[14] = RPMI 5 mM glucose + 10% FBS, 0.00702 µM
[15] = RPMI 5 mM glucose + 10% FBS, 0.0211 µM
[16] = RPMI 5 mM glucose + 10% FBS, 0.0632 µM
[17] = RPMI 5 mM glucose + 10% FBS, 0.19 µM
[18] = RPMI 5 mM glucose + 10% FBS, 0.569 µM
[19] = RPMI 5 mM glucose + 10% FBS, 1.71 µM
[20] = RPMI 5 mM glucose + 10% FBS, 5.12 µM
[21] = RPMI 5 mM glucose + 10% FBS, 15.4 µM
[22] = RPMI 5 mM glucose + 10% FBS, 46.1 µM
[23] = RPMI 5 mM glucose + 10% dialyzed FBS, 0.000781 µM
[24] = RPMI 5 mM glucose + 10% dialyzed FBS, 0.00234 µM
[25] = RPMI 5 mM glucose + 10% dialyzed FBS, 0.00702 µM
[26] = RPMI 5 mM glucose + 10% dialyzed FBS, 0.0211 µM
[27] = RPMI 5 mM glucose + 10% dialyzed FBS, 0.0632 µM
[28] = RPMI 5 mM glucose + 10% dialyzed FBS, 0.19 µM
[29] = RPMI 5 mM glucose + 10% dialyzed FBS, 0.569 µM
[30] = RPMI 5 mM glucose + 10% dialyzed FBS, 1.71 µM
[31] = RPMI 5 mM glucose + 10% dialyzed FBS, 5.12 µM
[32] = RPMI 5 mM glucose + 10% dialyzed FBS, 15.4 µM
[33] = RPMI 5 mM glucose + 10% dialyzed FBS, 46.1 µM

Structure (SMILES) | cell viability [1] [%] | cell viability [2] [%] | cell viability [3] [%] | cell viability [4] [%] | cell viability [5] [%] | cell viability [6] [%] | cell viability [7] [%] | cell viability [8] [%] | cell viability [9] [%] | cell viability [10] [%] | cell viability [11] [%] | cell viability [12] [%] | cell viability [13] [%] | cell viability [14] [%] | cell viability [15] [%] | cell viability [16] [%] | cell viability [17] [%] | cell viability [18] [%] | cell viability [19] [%] | cell viability [20] [%] | cell viability [21] [%] | cell viability [22] [%] | cell viability [23] [%] | cell viability [24] [%] | cell viability [25] [%] | cell viability [26] [%] | cell viability [27] [%] | cell viability [28] [%] | cell viability [29] [%] | cell viability [30] [%] | cell viability [31] [%] | cell viability [32] [%] | cell viability [33] [%]
NC(=O)c1ncn([C@@H]2O[C@H](CO)[C@@H](O)[C@H]2O)c1N | 127 | 111 | 96 | 136 | 111 | 121 | 123 | 123 | 126 | 115 | 83 |  |  |  |  |  |  |  |  |  |  |  |  |  |  |  |  |  |  |  |  |  | 
O=C(c1ccc(C(=O)N2CCC(N3CCCC3)CC2)c(Nc2ccccc2)c1)N1CCC(N2CCCC2)CC1 | 98.6 | 110 | 104 | 103 | 105 | 111 | 112 | 104 | 102 | 113 | 112 | 85.6 | 98.2 | 90.3 | 95 | 106 | 91.7 | 82.3 | 94.3 | 99.7 | 92.6 | 107 | 101 | 110 | 111 | 98.6 | 98.2 | 104 | 101 | 109 | 96.7 | 96.3 | 97.3
NC(=O)Cc1cccc(C(=O)c2ccccc2)c1N | 79.5 | 98.2 | 122 | 95.4 | 108 | 109 | 110 | 102 | 108 | 96.8 | 102 | 92.3 | 101 | 88.4 | 91.2 | 96.8 | 88 | 84.7 | 98.8 | 85.2 | 93.7 | 81.9 | 97.4 | 87.3 | 96.1 | 82.7 | 101 | 98.3 | 91.6 | 86.9 | 95.6 | 77.8 | 88.1
COC1=CC=CC(=C1/C2=N/CC3=C(N=C(NC4=CC(=C(C=C4)C(O)=O)OC)N=C3)C5=CC=C(Cl)C=C25)F | 78.5 | 88.3 | 78.9 | 88.2 | 76.3 | 38.6 | 53.4 | 48.3 | 58.6 | 62 | 51.6 | 70.8 | 80.6 | 77.2 | 84 | 71.4 | 28.4 | 48.8 | 46.5 | 49.8 | 53.6 | 61.8 | 82.2 | 77.5 | 72.9 | 82.2 | 63.7 | 51.9 | 49.4 | 48.2 | 49 | 50.5 | 61
COc1ccccc1N1CCN(CC(O)COc2cccc3ccccc23)CC1 (centres undefined) |  |  |  |  |  |  |  |  |  |  |  | 115 | 131 | 122 | 133 | 132 | 143 | 116 | 115 | 113 | 107 | 23.6 |  |  |  |  |  |  |  |  |  |  | 
CC(=O)[C@H]1CC[C@H]2[C@@H]3C/C=C4/C[C@@H](O)CC[C@]4(C)[C@H]3CC[C@]12C | 129 | 121 | 125 | 115 | 131 | 129 | 138 | 123 | 119 | 104 | 108 | 121 | 113 | 119 | 111 | 116 | 117 | 109 | 121 | 110 | 111 | 119 | 121 | 118 | 139 | 128 | 129 | 114 | 132 | 121 | 118 | 116 | 97.7
N[C@@H](Cc1ccc(N(CCCl)CCCl)cc1)C(=O)O |  |  |  |  |  |  |  |  |  |  |  | 124 | 130 | 123 | 142 | 150 | 140 | 137 | 137 | 124 | 44.8 | 23.8 |  |  |  |  |  |  |  |  |  |  | 
COc1cc([S+](C)(=O)[O-])ccc1Nc1nc2ccc(-c3ccc(NC(=O)[C@H](C)c4ccc(F)cc4)cc3)cn2n1 | 104 | 120 | 139 | 146 | 157 | 137 | 139 | 99.3 | 109 | 101 | 100 | 106 | 129 | 122 | 131 | 134 | 123 | 124 | 92.4 | 101 | 94.9 | 97.2 | 114 | 117 | 123 | 130 | 120 | 136 | 129 | 92.7 | 96.3 | 96.1 | 88.8
COc1c(C)c2c(c(O)c1C/C=C(\C)CCC(=O)OCCN1CCOCC1)C(=O)OC2 | 90.3 | 91.9 | 110 | 122 | 112 | 99.8 | 107 | 86.3 | 60.5 | 43.9 | 31.9 | 98.5 | 108 | 98 | 92.7 | 95 | 110 | 107 | 122 | 62.9 | 38.8 | 33.6 | 102 | 108 | 102 | 111 | 104 | 115 | 98.9 | 89 | 64.7 | 49.5 | 42.2
CC[C@@H](C)[C@H](NC(=O)[C@H](CC1CCCCC1)NC(=O)c1ccno1)C(=O)N1CCC2(CCc3ccccc32)CC1 | 85.9 | 90.6 | 86.1 | 78.9 | 108 | 97.3 | 75.9 | 66.1 | 79.2 | 81.7 | 69.9 | 80.1 | 88.6 | 81.1 | 79.9 | 77.1 | 78.3 | 89.1 | 81.9 | 84.6 | 74.4 | 72.2 | 84 | 85.4 | 84 | 77.9 | 87.6 | 82.4 | 76.2 | 69.8 | 82.6 | 73.7 | 83.2
CCN(CCO)CCCC(C)Nc1ccnc2cc(Cl)ccc12 (centres undefined) | 111 | 105 | 104 | 123 | 112 | 139 | 107 | 101 | 90 | 53.2 | 26 | 107 | 115 | 110 | 102 | 101 | 118 | 115 | 116 | 110 | 45.2 | 21 |  |  |  |  |  |  |  |  |  |  | 
COCCNCCCn1c(C(=O)CF)c(-c2ccc(C)cc2)c2c(N)ncnc21 | 94.7 | 120 | 98.5 | 88.7 | 117 | 107 | 108 | 98 | 105 | 105 | 93.9 | 103 | 88 | 88.5 | 93.1 | 98 | 93.5 | 88.5 | 88.7 | 88.5 | 97.4 | 107 | 96.8 | 101 | 105 | 99.4 | 93.3 | 86.9 | 99.4 | 95.6 | 83.7 | 93 | 101
O=C1CCc2cc(OCCCCc3nnnn3C3CCCCC3)ccc2N1 | 92.2 | 86.5 | 92.8 | 99.6 | 97.6 | 98.9 | 107 | 86 | 108 | 124 | 111 | 93 | 94.7 | 91.3 | 82.8 | 85.8 | 98.4 | 88.2 | 88.7 | 92.4 | 91.2 | 91.4 | 88.6 | 93 | 88.8 | 95.7 | 88 | 93.1 | 96.9 | 96.5 | 109 | 93.9 | 96
Cc1n[nH]c(C)c1Cc1sc2c(c1C(=O)N1C[C@H](O)CO1)c(=O)n(C)c(=O)n2CC(C)C |  |  |  |  |  |  |  |  |  |  |  | 107 | 105 | 102 | 100 | 102 | 102 | 109 | 99.1 | 93.9 | 106 | 109 | 105 | 109 | 117 | 102 | 116 | 104 | 115 | 122 | 113 | 119 | 99.7
CC(C)C[C@@H](C(=O)N[C@H](C(=O)OC1CCCC1)c1ccccc1)[C@H](O)C(=O)NO | 107 | 114 | 112 | 119 | 126 | 107 | 104 | 122 | 103 | 96.2 | 33.6 | 111 | 102 | 117 | 117 | 103 | 107 | 103 | 99.3 | 99 | 92.6 | 13 | 114 | 114 | 122 | 122 | 100 | 119 | 102 | 118 | 106 | 91.2 | 16
NCC/1=C/NC(=S)N1[C@H]2CCC3=C(F)C=C(F)C=C3C2 |  |  |  |  |  |  |  |  |  |  |  | 106 | 108 | 105 | 102 | 112 | 103 | 124 | 106 | 101 | 105 | 79.4 |  |  |  |  |  |  |  |  |  |  | 
O=C1N\N=C(\C[C@@H]2CCN(C2)C(=O)C3CC3)N1C4=CC=C(C=C4)C5=CC=C6OC=CC6=C5 | 99.4 | 89 | 90.1 | 94.5 | 94.7 | 99 | 92 | 109 | 94.4 | 73.9 | 92.2 | 78.2 | 77.4 | 87.3 | 77.6 | 90 | 79.9 | 95.3 | 82.3 | 85.6 | 81.3 | 80.5 | 85.5 | 86.8 | 75.5 | 82.5 | 80.5 | 81.6 | 85.4 | 82.3 | 86 | 75.5 | 87.7
COc1ccc(-c2cc3c(C)nc(N)nc3n([C@H]3CC[C@H](OCCO)CC3)c2=O)cn1 | 96.9 | 97.5 | 88.7 | 76.4 | 74.2 | 50 | 52.6 | 38 | 38.8 | 28.3 | 20 | 93.6 | 87 | 90.7 | 84.8 | 87.4 | 64.5 | 68.5 | 47.7 | 43.1 | 40.3 | 28.4 | 86.8 | 86.6 | 80.7 | 75.1 | 66.4 | 58.4 | 50 | 41.2 | 37.6 | 34.8 | 23.3
